This passage reports Fold change results from patent US20220284983A1, “METHODS OF IDENTIFYING CIS-REGULATORY ELEMENTS AND USES THEREOF” (UNIVERSITY HEALTH NETWORK, priority 2019, published 2022).

The experiment deals with 16 breast cancer cell lines. In words: Drug response of 16 breast cancer cell lines (GRAY dataset, PharmacoGx) compared by presence or absence of CREAM-identified COREs. The experiment is classed as cell-based. Particulars: >1 = higher sensitivity when CORE present. An excerpt:
For example, in methods involving assessing drug sensitivity, for each CORE, average drug sensitivity of the samples with that CORE can be divided to the average drug sensitivity of the samples without that CORE. Then the COREs can be sorted based on the obtained fold changes and COREs with top fold changes can be selected.
Therefore, in some embodiments, the top COREs can be determined as being the COREs with a minimum FDR (False Discovery Rate) after significance after multiple hypothesis correction with dindex>1 (where dindex is a measure of hazard). The FDR indicates the significance or effect of association between existence (in the case of binary features using COREs) or values of that feature and the output value (like drug sensitivity in case of biomarker discovery). The FDR is a corrected p-value for multiple hypothesis. Then the COREs that exist in less than N samples may be further filtered. The value of N may be 2 or more and depends on the particular COREs and the prognosis being predicted. For some studies described herein N was chosen to be 5. As an optional step, the remaining COREs may be combined to result in the CORE signatures that may be used for a multivariate model. In some embodiments, Fold Change may be used instead of FDR in which case for each CORE, the average drug sensitivity of the samples with that CORE can be divided by the average drug sensitivity of the samples without that CORE. Then the COREs can be sorted based on the obtained fold changes and the COREs with the top fold changes can be selected.
CREAM was tested for biomarker discovery, for drug response, using 16 breast cancer cell lines (AU565, BT549, HCC1143, HCC1395, HCC1419, HCC1806, HCC1937, HCC3153, HCC38, HCC70, MDAMB157, MDAMB361, MDAMB453, MX1, T47D, ZR751) with available ATAC-seq profiles and response to PD98059 (a non-ATP competitive MEK inhibitor), and Floxuridine (an antimetabolite agent), as part of the data available in PharmacoGx R package (version 2.0.5) developed by Haibe-Kains laboratory. There are currently no known biomarker for response to PD98059 and Floxuridine.
The columns in each Table are: 1) chromosome regions of the COREs; 2) pvalue; 3) Fold change.
Fold change tells you if presence of a CORE results in higher or lower sensitivity. If Fold Change is great than 1, it means that presence of a CORE results in higher sensitivity and Fold Change is less than 1, it means that presence of a CORE results in lower sensitivity.

Molecules are shown by their SMILES.

`O=c1[nH]c(=O)n([C@H]2C[C@H](O)[C@@H](CO)O2)cc1F` [Floxuridine] had a Fold change (Floxuridine sensitivity with vs without CORE chr2-36473442-37039510) of 0.6674; a Fold change (Floxuridine sensitivity with vs without CORE chr3-69004922-69292456) of 0.6617; a Fold change (Floxuridine sensitivity with vs without CORE chr4-99547495-99584170) of 0.5406; a Fold change (Floxuridine sensitivity with vs without CORE chr5-167696005-167914094) of 0.629; a Fold change (Floxuridine sensitivity with vs without CORE chr6-16577121-16782003) of 0.5777; a Fold change (Floxuridine sensitivity with vs without CORE chr15-60619092-60725509) of 0.7009. Further, the Fold change runs as follows: (Floxuridine sensitivity with vs without CORE chr16-29801700-30154789) 1.653; (Floxuridine sensitivity with vs without CORE chr16-67184267-67407032) 2.017; (Floxuridine sensitivity with vs without CORE chr17-21102597-21252333) 0.699.
With `COc1cccc(-c2cc(=O)c3ccccc3o2)c1N` [PD98059], the Fold change is, setting by setting: (PD98059 sensitivity with vs without CORE chr2-75602732-75966190) 0.5231; (PD98059 sensitivity with vs without CORE chr6-126063660-126362254) 0.4327; (PD98059 sensitivity with vs without CORE chr7-54328557-56189467) 0.5362; (PD98059 sensitivity with vs without CORE chr9-75681937-75835570) 0.538; (PD98059 sensitivity with vs without CORE chr9-103348375-103365047) 0.4902; (PD98059 sensitivity with vs without CORE chr9-130150616-131799038) 1.906. Besides, the Fold change by setting is: (PD98059 sensitivity with vs without CORE chr9-139257512-140211180) 1.864; (PD98059 sensitivity with vs without CORE chr11-694436-876984) 2.17; (PD98059 sensitivity with vs without CORE chr11-34183346-34607941) 1.859; (PD98059 sensitivity with vs without CORE chr15-40330702-40453457) 2.206; (PD98059 sensitivity with vs without CORE chr16-4965308-5008584) 1.983; (PD98059 sensitivity with vs without CORE chr16-53766187-53861966) 0.4902. The compound also registered a Fold change (PD98059 sensitivity with vs without CORE chr17-21102597-21252333) of 0.5247, a Fold change (PD98059 sensitivity with vs without CORE chr19-45765981-46636866) of 1.904 and a Fold change (PD98059 sensitivity with vs without CORE chr20-9819285-10752699) of 0.5253.
